This assay addresses T1, human Y4 receptor (Homo sapiens, UniProt P50391).
T1 construct: expressed in transfected cells
Briefly: NPY4 cAMP HTRF Agonist Assay (inhibitory cAMP assay, Gi activation by Y4 agonism). The format is cell-based. Summed up: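 CHO cells stably expressing human Y4, 5000/well, exposed to compound with forskolin and IBMX in PBS for 30 min at room temperature. Gi-mediated inhibition of cAMP then measured by HTRF after 1 h with d2-conjugate and anti-cAMP cryptate.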

[1] abbreviates: human Y4 receptor, cAMP, read-out: hY4 CAMP EC50.
Setting [2] is: human Y4 stable CHO clonal cells, forskolin + IBMX, read-out: NPY4 cAMP HTRF Agonist Assay EC50.
Setting [3] is: TABLE 4, R2 is Pyridinyl-CN, read-out: hY4 CAMP EC50.
The mark [4] stands for this setting: TABLE 2, R2 is Phenyl-CN, read-out: hY4 CAMP EC50.
Where [5] appears, read: second TABLE 1, R2 is Phenyl-CF3, read-out: hY4 CAMP EC50.
Where [6] appears, read: TABLE 7, R2 is Pyridinyl-oxadiazole-CH3, read-out: hY4 CAMP EC50.

Read-outs that look alike come from different tables or passages of the source.

T1 sequence (P50391 whole entry): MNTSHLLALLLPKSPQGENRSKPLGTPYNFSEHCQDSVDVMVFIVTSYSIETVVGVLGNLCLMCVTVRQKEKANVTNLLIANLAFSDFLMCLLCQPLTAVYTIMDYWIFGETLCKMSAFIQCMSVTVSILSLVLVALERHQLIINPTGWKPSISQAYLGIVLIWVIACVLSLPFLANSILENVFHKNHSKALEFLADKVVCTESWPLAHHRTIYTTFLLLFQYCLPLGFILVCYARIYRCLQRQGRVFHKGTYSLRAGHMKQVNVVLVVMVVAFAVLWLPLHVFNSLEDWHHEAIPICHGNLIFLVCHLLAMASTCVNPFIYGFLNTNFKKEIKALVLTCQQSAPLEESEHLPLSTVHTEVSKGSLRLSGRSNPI

For the molecule `C[C@]1(N[C@@H]2CCCC[C@H]2Nc2ncc(-c3cccc(C(N)=O)c3)o2)CCCN(c2ccc(-c3noc(C4CC4)n3)nc2)C1` [Example 449], under setting [1], the EC50 (commonly the concentration needed to bring the measured effect to its halfway point) was determined as 0.005 µM.
As for `CNC(=O)c1cccc(-c2ccnc(N[C@@H]3CCCC[C@H]3N[C@H]3CCCN(c4cnc(-c5noc(C)n5)nc4)C3)c2)c1` [Example 464], the EC50 under setting [1] is 0.042 µM.
On to `O=[N+]([O-])c1ccc(N2CCC[C@H](N[C@@H]3CCCC[C@H]3Nc3ncc(-c4ccc(OC(F)(F)F)cc4)o3)C2)cc1` [Example 1, (1R,2R)—N1-((S)-1-(4-Nitrophenyl)piperidin-3-yl)-N2-(5-(4-(trifluoromethoxy)phenyl)oxazol-2-yl)cyclohexane-1,2-diamine], for which the EC50 under setting [2] stood at 0.006 µM.
Turning to `N#Cc1ccc(N2CCC[C@H](N[C@@H]3CCCC[C@H]3Nc3ncc(-c4cccc(C(N)=O)c4)o3)C2)cn1` [Example 305], the EC50 under setting [3] came to 0.007 µM.
For `N#Cc1ccc(N2C[C@@H]3C[C@H](N[C@@H]4CCCC[C@H]4Nc4ncc(-c5ccccc5OC(F)(F)F)o4)[C@H]2C3)cc1` [Example 224], the EC50 under setting [4] came to 0.002 µM.
Regarding `NC(=O)c1cccc(-c2ccnc(N[C@@H]3CCCC[C@H]3N[C@H]3CCCN(c4ccc(-c5noc(C6CC6)n5)cn4)C3)c2)c1` [Example 451], the EC50 under setting [1] turned out to be 0.004 µM.
Same read-out and setting: next, `CNC(=O)c1cccc(-c2cnc(N[C@@H]3CCCC[C@H]3N[C@H]3CCCN(c4ccc5ncnn5c4)C3)o2)c1` [Example 485]: 0.058 µM; `N#Cc1cc(N2C[C@@H]3C[C@H](N[C@@H]4CCCC[C@H]4Nc4ncc(-c5ccc(OC(F)(F)F)cc5)o4)[C@H]2C3)ncn1` [Example 444]: 0.378 µM.
For `CCCNC(=O)c1cccc(-c2ccnc(N[C@@H]3CCCC[C@H]3N[C@H]3CCCN(c4ccc(C(F)(F)F)cc4)C3)c2)c1` [Example 139], the EC50 under setting [5] was 0.029 µM.
Consider `NC(=O)c1cccc(-c2cnc(N[C@@H]3CCCC[C@H]3N[C@H]3CCCN(c4ccc(OC(F)(F)F)cc4)C3)o2)c1` [Example 459], for which the EC50 under setting [1] stood at 0.001 µM.
On to `N#Cc1ccc(N2CCC[C@H](N[C@@H]3CCCC[C@H]3Nc3cc(-c4cccc(F)c4)ccn3)C2)cc1` [Example 36, 4-((S)-3-((1R,2R)-2-(4-(3-Fluorophenyl)pyridin-2-ylamino)cyclohexylamino)piperidin-1-yl)benzonitrile tris-trifluoroacetate], for which, under setting [2], the EC50 is 0.262 µM.
As for `FC(F)(F)c1ccc(N2CCC[C@H](N[C@@H]3CCCC[C@H]3Nc3cc(-c4cc[nH]c4)ccn3)C2)cc1` [Example 198], the EC50 under setting [5] amounted to 0.067 µM.
Take `Cn1cnc(-c2ccc(N3CCC[C@H](N[C@@H]4CCCC[C@H]4Nc4cc(-c5ccc(F)c(F)c5)ccn4)C3)cc2)n1` [Example 457]: the EC50 under setting [1] was determined as 0.026 µM.
Regarding `COC(=O)Nc1cccc(-c2cnc(N[C@@H]3CCCC[C@H]3N[C@H]3CCCN(c4ccc5ncnn5c4)C3)o2)c1` [Example 483], the EC50 under setting [1] worked out at 0.004 µM.
Consider `NC(=O)c1cccc(-c2ccnc(N[C@@H]3CCCC[C@H]3N[C@H]3CCCN(c4ccc(OC(F)(F)F)cc4)C3)c2)c1` [Example 462], for which the EC50 under setting [1] worked out at 0.008 µM.
For `OCCCCc1ccnc(N[C@@H]2CCCC[C@H]2N[C@H]2CCCN(c3ccc(C(F)(F)F)cc3)C2)c1` [Example 187], under setting [5], the EC50 amounted to 0.042 µM.
For `COC(=O)c1cccn1-c1ccnc(N[C@@H]2CCCC[C@H]2N[C@H]2CCCN(c3ccc(C#N)cc3)C2)c1` [Example 204], the concentration for a half-maximal effect (EC50) under setting [4] stood at 0.147 µM.
Turning to `N#Cc1ncc(N2C[C@@H]3C[C@H](N[C@@H]4CCCC[C@H]4Nc4ncc(-c5cccc(C(N)=O)c5)o4)[C@H]2C3)cn1` [Example 434], under setting [1], the EC50 amounted to 0.129 µM.
As for `Cn1nccc1-c1ccnc(N[C@@H]2CCCC[C@H]2N[C@H]2CCCN(c3ccc(C#N)cc3)C2)c1` [Example 34, 4-((S)-3-((1R,2R)-2-(4-(1-Methyl-1H-pyrazol-5-yl)pyridin-2-ylamino)cyclohexylamino)piperidin-1-yl)benzonitrile tris-trifluoroacetate], the half-maximal effective concentration (EC50) under setting [2] was determined as 0.15 µM.
Take `CS(=O)(=O)c1cccc(-c2ccnc(N[C@@H]3CCCC[C@H]3N[C@H]3CCCN(c4ccc(C#N)cc4)C3)c2)c1` [Example 254]: the EC50 under setting [4] amounted to 0.381 µM.
Turning to `Cc1nc2ccc(N3CCC[C@H](N[C@@H]4CCCC[C@H]4Nc4cc(-c5cccc(C(N)=O)c5)ccn4)C3)cn2n1` [Example 491], under setting [1], the EC50 stood at 0.022 µM.
For the molecule `CC(C)(O)c1cccc(-c2ccnc(N[C@@H]3CCCC[C@H]3N[C@H]3CCCN(c4ccc(C#N)nc4)C3)c2)c1` [Example 317], the concentration giving a half-maximal response (EC50) under setting [3] is 0.105 µM.
Take `FC(F)(F)Oc1ccc(-c2cnc(N[C@@H]3CCCC[C@H]3N[C@H]3CCCN(c4ccc(C(F)(F)F)cc4)C3)o2)cc1` [Example 71, (1R,2R)—N1-(5-(4-(Trifluoromethoxy)phenyl)oxazol-2-yl)-N2-((S)-1-(4-(trifluoromethyl)phenyl)piperidin-3-yl)cyclohexane-1,2-diamine]: the EC50 under setting [2] was found to be 0.045 µM.
For the molecule `Cc1nc(-c2ccc(N3CCC[C@H](N[C@@H]4CCCC[C@H]4Nc4ncc(-c5ccc(OC(F)(F)F)cc5)o4)C3)nc2)no1` [Example 392], the concentration giving a half-maximal response (EC50) under setting [6] came out at 0.194 µM.
Still for that read-out and setting: next, `Cc1nc(-c2ccc(N3CCC[C@H](N[C@@H]4CCCC[C@H]4Nc4ncc(-c5cccc(C(N)=O)c5)o4)C3)cn2)no1` [Example 397]: 0.003 µM.
`FC(F)(F)Oc1ccc(-c2cnc(N[C@@H]3CCCC[C@H]3N[C@H]3CCCN(c4ccc(C(F)(F)F)cn4)C3)o2)cc1` [Example 94, (1R,2R)—N1-(5-(4-(Trifluoromethoxy)phenyl)oxazol-2-yl)-N2-((S)-1-(5-(trifluoromethyl)pyridin-2-yl)piperidin-3-yl)cyclohexane-1,2-diamine]: under setting [2], the EC50 was found to be 0.21 µM.
`Cc1nc2ccc(N3CCC[C@H](N[C@@H]4CCCC[C@H]4Nc4ncc(-c5ccc(F)c(F)c5)o4)C3)cn2n1` [Example 492]: the EC50 under setting [1] was determined as 0.038 µM.
As for `FC(F)(F)Oc1ccc(-c2cnc(N[C@@H]3CCCC[C@H]3N[C@H]3CCCN(c4ccc(OC(F)(F)F)cc4)C3)o2)cc1` [Example 87, (1R,2R)—N1-(5-(4-(Trifluoromethoxy)phenyl)oxazol-2-yl)-N2-((S)-1-(4-(trifluoromethoxy)phenyl)piperidin-3-yl)cyclohexane-1,2-diamine], the EC50 under setting [2] turned out to be 0.185 µM.
Regarding `FC(F)(F)Oc1ccc(-c2cnc(N[C@@H]3CCCC[C@H]3N[C@H]3C[C@@H]4C[C@H]3N(c3ncc(C(F)(F)F)cn3)C4)o2)cc1` [Example 423], the EC50 under setting [1] stood at 0.222 µM.
As for `CN(C)Cc1cccc(-c2ccnc(N[C@@H]3CCCC[C@H]3N[C@H]3CCCN(c4ccc(C(F)(F)F)cc4)C3)c2)c1` [Example 131], the EC50 under setting [5] was found to be 1.11 µM.
In the case of `Cn1nnc(-c2ccc(N3CCC[C@H](N[C@@H]4CCCC[C@H]4Nc4cc(-c5cccc(O)c5)ccn4)C3)cc2)n1` [Example 504], the EC50 under setting [1] was 0.0003 µM.
In the case of `CS(=O)(=O)c1ccc(-c2ccnc(N[C@@H]3CCCC[C@H]3N[C@H]3CCCN(c4ccc(C#N)cc4)C3)c2)cc1` [Example 255], the EC50 under setting [4] was 0.922 µM.
Turning to `N#Cc1ccc(N2C[C@@H]3C[C@H](N[C@@H]4CCCC[C@H]4Nc4cc(-c5cccc(C(N)=O)c5)ccn4)[C@H]2C3)cc1` [Example 231], the EC50 under setting [4] came to 0.008 µM.
As to `COC(=O)Nc1cccc(-c2cnc(N[C@@H]3CCCC[C@H]3N[C@H]3CCCN(c4ccc5nc(C)nn5c4)C3)o2)c1` [Example 490], under setting [1], the concentration for a half-maximal effect (EC50) amounted to 0.001 µM.
On to `Ic1ccc(N2CCC[C@H](N[C@@H]3CCCC[C@H]3Nc3nccc(-c4ccccc4)n3)C2)cc1` [Example 92, (1R,2R)—N1-((S)-1-(4-Iodophenyl)piperidin-3-yl)-N2-(4-phenylpyrimidin-2-yl)cyclohexane-1,2-diamine bis-trifluoroacetate], for which, under setting [2], the EC50 was 0.469 µM.
As for `OCCC#Cc1ccnc(N[C@@H]2CCCC[C@H]2N[C@H]2CCCN(c3ccc(C(F)(F)F)cc3)C2)c1` [Example 161], the EC50 under setting [5] came out at 0.031 µM.
In the case of `N#Cc1ccc(N2CCC[C@H](N[C@@H]3CCCC[C@H]3Nc3cc(-n4ccc(C(F)(F)F)n4)ccn3)C2)cc1` [Example 206], under setting [4], the EC50 amounted to 0.44 µM.
`O=[N+]([O-])c1ccc(N2CCC[C@H](N[C@@H]3CCCC[C@H]3NC3=NOC(c4ccccc4)C3)C2)cc1` (some centres unmarked) [Example 286]: the EC50 (TABLE 3, R2 is Phenyl-NO2, read-out: hY4 CAMP EC50) came to 0.074 µM.
As for `Cc1nnc(-c2ccc(N3CCC[C@H](N[C@@H]4CCCC[C@H]4Nc4ncc(-c5ccccc5OC(F)(F)F)o4)C3)cc2)o1` [Example 348], the EC50 under setting [1] was determined as 0.003 µM.
In the case of `N#Cc1ccc(N2CCC[C@H](N[C@@H]3CCCC[C@H]3Nc3cc(-c4ccco4)ccn3)C2)cc1` [Example 247], the EC50 under setting [4] came to 0.015 µM.
On to `CCOC(=O)Nc1cccc(-c2cnc(N[C@@H]3CCCC[C@H]3N[C@H]3CCCN(c4cnc(C(F)(F)F)nc4)C3)o2)c1` [Example 107, Ethyl (3-(2-(((1R,2R)-2-(((S)-1-(2-(trifluoromethyl)pyrimidin-5-yl)piperidin-3-yl)amino)cyclohexyl)amino)oxazol-5-yl)phenyl)carbamate], for which the concentration for a half-maximal effect (EC50) under setting [2] came to 0.004 µM.
Same read-out and setting: next, `N#Cc1ccc(N2CCC[C@H](N[C@@H]3CCCC[C@H]3Nc3cc(/C=C\C(N)=O)ccn3)C2)cc1` [Example 110, (Z)-3-(2-(((1R,2R)-2-(((S)-1-(4-cyanophenyl)piperidin-3-yl)amino)cyclohexyl)amino)pyridin-4-yl)acrylamide]: 0.515 µM.
For the molecule `FC(F)(F)c1ccc(N2CCC[C@H](N[C@@H]3CCCC[C@H]3Nc3cc(-c4ccc5scnc5c4)ccn3)C2)cc1` [Example 157], under setting [5], the EC50 was found to be 0.194 µM.
For the molecule `N#Cc1ccc(N2CCC[C@H](N[C@@H]3CCCC[C@H]3Nc3cc(-c4ccccc4F)ccn3)C2)cc1` [Example 37, 4-((S)-3-((1R,2R)-2-(4-(2-Fluorophenyl)pyridin-2-ylamino)cyclohexylamino)piperidin-1-yl)benzonitrile tris-trifluoroacetate], the EC50 under setting [2] is 0.082 µM.

For the origin of these results see US8815909B2, “Diaminocyclohexane compounds and uses thereof” (Bristol-Myers Squibb Company, priority 2011, dated 2014).
